Measurements published in the supplement of paper PMC10307832.

Tests used:
Test in all cases: relative viability (nuclei count vs DMSO), 5 days (fraction); higher = more cells survive
[1] = compound: CNC(=O)c1cc(Oc2ccc(NC(=O)Nc3ccc(Cl)c(C(F)(F)F)c3)cc2)ccn1 [Sorafenib] + CC(=O)c1c(C)c2cnc(Nc3ccc(N4CCNCC4)cn3)nc2n(C2CCCC2)c1=O [Palbociclib] (partner 0.5 µM)
Outline: (§1)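 Lung cancer cell lines were pin-tool dosed in 1536-well plates on the day after seeding, with either a lone drug or a fixed anchor-drug dose plus five library-drug doses (not always all listed) in √10 steps. Nuclei were counted on 4× images after 5 days. Relative viability is the ratio of treated-well to vehicle-well nuclei counts, with each value a median of duplicate plates.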

[2] = compound: CNC(=O)c1cc(Oc2ccc(NC(=O)Nc3ccc(Cl)c(C(F)(F)F)c3)cc2)ccn1 [Sorafenib] + CC(C)C[C@H](NC(=O)[C@H](Cc1ccccc1)NC(=O)c1cnccn1)B(O)O [Bortezomib] (partner 0.002 µM)
Outline: as §1

[3] = compound: CNC(=O)c1cc(Oc2ccc(NC(=O)Nc3ccc(Cl)c(C(F)(F)F)c3)cc2)ccn1 [Sorafenib] + CC1(C)CCC(c2ccc(Cl)cc2)=C(CN2CCN(c3ccc(C(=O)NS(=O)(=O)c4ccc(N[C@H](CCN5CCOCC5)CSc5ccccc5)c(S(=O)(=O)C(F)(F)F)c4)cc3)CC2)C1 [Navitoclax] (partner 0.5 µM)
Outline: as §1

[4] = compound: CNC(=O)c1cc(Oc2ccc(NC(=O)Nc3ccc(Cl)c(C(F)(F)F)c3)cc2)ccn1 [Sorafenib] + COc1cccc2cc(-c3nc([C@H]4CC[C@H](C(=O)O)CC4)n4ncnc(N)c34)[nH]c12 [OSI-027] (partner 0.5 µM)
Outline: as §1

[5] = compound: CNC(=O)c1cc(Oc2ccc(NC(=O)Nc3ccc(Cl)c(C(F)(F)F)c3)cc2)ccn1 [Sorafenib] + Nc1ncn([C@H]2C[C@H](O)[C@@H](CO)O2)c(=O)n1 [Decitabine] (partner 2 µM)
Outline: as §1

| Cell Line | relative viability ([1]; first compound 0.08 µM) | relative viability ([1]; first compound 0.253 µM) | relative viability ([1]; first compound 2.53 µM) | relative viability ([1]; first compound 8 µM) | relative viability ([2]; first compound 0.08 µM) | relative viability ([2]; first compound 0.253 µM) | relative viability ([2]; first compound 2.53 µM) | relative viability ([2]; first compound 8 µM) | relative viability ([3]; first compound 0.08 µM) | relative viability ([3]; first compound 0.253 µM) | relative viability ([3]; first compound 8 µM) | relative viability ([4]; first compound 0.08 µM) | relative viability ([4]; first compound 0.253 µM) | relative viability ([4]; first compound 2.53 µM) | relative viability ([4]; first compound 8 µM) | relative viability ([5]; first compound 0.08 µM) | relative viability ([5]; first compound 0.253 µM) | relative viability ([5]; first compound 2.53 µM) | relative viability ([5]; first compound 8 µM) | relative viability ([3]; first compound 2.53 µM) |
| --- | --- | --- | --- | --- | --- | --- | --- | --- | --- | --- | --- | --- | --- | --- | --- | --- | --- | --- | --- | --- |
| HARA | 0.295 | 0.286 | 0.303 | 0.339 | 1.18 | 1.02 | 1.16 | 1.02 | 1.17 | 1.08 | 1.13 | 0.606 | 0.5 | 0.619 | 0.257 | 0.633 | 0.465 | 0.592 | 0.461 | – |
| HCC-15 | 0.77 | 0.619 | 0.708 | 0.48 | 0.996 | 0.83 | 0.912 | 0.807 | 0.748 | 0.713 | 0.522 | 0.631 | 0.558 | 0.712 | 0.386 | 0.679 | 0.631 | 0.723 | 0.321 | 0.804 |
| HCC-44 | 0.96 | 0.771 | 0.858 | 0.834 | 0.814 | 0.805 | 0.865 | 0.699 | – | 0.92 | 0.909 | 0.552 | 0.431 | 0.741 | 0.395 | – | 0.862 | 0.886 | 0.866 | 1.03 |
| HCC-78 | 0.468 | 0.471 | 0.529 | 0.476 | 0.517 | 0.427 | – | 0.585 | 0.814 | 0.731 | 0.84 | 0.39 | 0.304 | 0.431 | 0.384 | 0.752 | 0.634 | 0.608 | 0.596 | 0.739 |
